Experimental data published in article PMC11324666, “Two novel in vitro assays to screen chemicals for their capacity to inhibit thyroid hormone transmembrane transporter proteins OATP1C1 and OAT4” (Archives of Toxicology, 2024).
pIC50: −log10 of the molar value. Like-named read-outs stand apart in the source and are kept apart here. Each block holds one compound with its values, some of them ahead of it.

How the values were obtained:
CHO-K1 OATP1C1 cells = settings: for cytotoxic effects: at concentrations of the uptake assay, Figure S1; for Cytotoxicity IC10: concentration that inhibits cell viability by 10%, CHO-K1 OATP1C1 cells, 30 min exposure
Experimental: (§1) Cell viability was assessed through the quantitation of ATP present in cells using the commercially available CellTiter-Glo® luminescent cell viability assay and performed according to the manufacturer’s instruction (Promega, Leiden, the Netherlands). Briefly, cells were seeded as described earlier in opaque-walled clear-bottom 96 well plates. On the day of the experiment, each well was washed with 200 µL phosphate buffered saline (PBS) and exposed to 80 µL of uptake buffer, 10 µL of a tenfold stock of test compound solved in uptake buffer or control and 10 µL of T4 (final concentration 10 nM). 0.1% DMSO was used as a solvent control, while 10% DMSO was used as a positive control. After exposure for the indicated times similar to THTMT TH uptake assay, cells were immediately washed with ice-cold PBS + 0.1%BSA and exposed to 100 µL of the CellTiter-Glo® Reagent. Plates were then shaken on an orbital shaker for 2 min and left to incubate at room temperature for 10 min. Luminescence was measured on a BioTek Cytation 5 microplate reader. […] Each individual experiment was repeated at least twice and contained three technical replicates of each control and concentration tested.
Figure S1. […] Blue dots indicate the plate medians from three or four independent experiments, all control and chemical concentrations were tested in triplicates per plate.

OATP1C1 [1] = target: T1, OATP1C1 (Homo sapiens, UniProt Q9NYB5); assay: CHO-K1 OATP1C1 TH uptake assay with 125I-T4 tracer; type: cell-based
T1 construct: host or cells: CHO-K1
T1 sequence (Q9NYB5 1-712): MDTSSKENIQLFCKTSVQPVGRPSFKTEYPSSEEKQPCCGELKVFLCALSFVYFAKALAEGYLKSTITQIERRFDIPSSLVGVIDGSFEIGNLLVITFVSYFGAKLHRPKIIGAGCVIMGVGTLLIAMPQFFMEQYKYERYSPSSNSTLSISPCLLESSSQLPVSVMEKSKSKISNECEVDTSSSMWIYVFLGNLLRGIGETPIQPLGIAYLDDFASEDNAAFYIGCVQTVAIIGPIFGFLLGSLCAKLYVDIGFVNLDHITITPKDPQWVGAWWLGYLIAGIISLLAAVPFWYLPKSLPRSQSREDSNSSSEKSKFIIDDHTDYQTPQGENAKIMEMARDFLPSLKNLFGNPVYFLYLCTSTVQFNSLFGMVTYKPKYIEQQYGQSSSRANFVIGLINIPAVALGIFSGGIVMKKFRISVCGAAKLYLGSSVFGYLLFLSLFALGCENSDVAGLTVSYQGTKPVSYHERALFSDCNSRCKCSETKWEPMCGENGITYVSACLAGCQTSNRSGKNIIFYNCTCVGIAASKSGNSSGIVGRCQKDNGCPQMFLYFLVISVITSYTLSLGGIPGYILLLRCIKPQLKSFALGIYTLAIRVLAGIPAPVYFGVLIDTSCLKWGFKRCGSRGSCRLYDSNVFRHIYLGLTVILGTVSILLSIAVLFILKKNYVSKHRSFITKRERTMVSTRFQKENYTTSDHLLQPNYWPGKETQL
Experimental: (§2) MDCK-OAT4 and MDCK-DEST cells were cultured in DMEM:F12 (L-glutamine, 15 mM HEPES) (Gibco) supplemented with (100 µg/mL penicillin + 100 µg/mL streptomycin), 10% fetal calf serum (Gibco) and 2 µg/mL blasticidin (Sigma). CHO-K1 OATP1C1 or WT cells were cultured in F12 nutrient mix (Gibco) supplemented with (100 µg/mL penicillin + 100 µg/mL streptomycin), 10% fetal calf serum (Gibco) and […] G418 (Sigma). All cell cultures were incubated at 37 °C with 5% CO2 saturation until 80% confluency. MDCK-OAT4 and MDCK-DEST cells were seeded in 96 wells plate at a density of 4 × 10^5 cells in 100 µL medium per well and incubated for 24 h before the start of the MDCK-OAT4 TH uptake assay. CHO-K1 OATP1C1 and WT cells were seeded in 96 wells plate at a density of 3 × 10^5 cells in 100 µL medium per well 72 h before the CHO-K1 OATP1C1 TH uptake assay. Medium from CHO-K1 OATP1C1 or WT assay plates was changed to serum-free F12 medium containing 5 mM sodium-butyrate 24 h before start of the CHO-K1 OATP1C1 TH uptake assay to increase transfected expression of SV-40 promotor plasmids.
(§3) Subsequently 10 µL of a tenfold stock of test compound in uptake buffer (solvent concentration 1% v/v) was added to each well. […] Cells were exposed at 37 °C for 20 min (MDCK-OAT4) or 30 min (CHO-K1 OATP1C1), unless stated differently. After exposure, cells were immediately washed with ice-cold PBS supplemented with 0.1% bovine serum albumin (BSA). Subsequently, cells were lysed in 50 µL of 0.1 M NaOH under continuous shaking at room temperature. After 20 min, cell lysates were manually transferred into separate 5 mL polypropylene tubes. One tube was also prepared with 10 µL of the T4 tracer solution. Radioactivity was measured in a Wizard^2 gamma counter (Perkin Elmer).
(§4) For the CHO-K1 OATP1C1 TH uptake assay total of 29 chemicals (Table 1) were selected for the EDC screening based on available literature data. […] The same chemicals were selected for the MDCK-OAT4 TH uptake assay, with the exception of BPF, VRP and TCS. […] The THTMT TH uptake assay was then performed as described earlier. […] A concentration of 100 µM ICG was used as a reference chemical for OATP1C1 and 100 µM LESI for OAT4. At least three independent experiments were performed for each chemical.
(§5) Raw values were normalized to the total amount of radioactivity in the T4 tracer solution. These values were expressed as a percentage of total radioactivity added (or uptake percentage) and used for all further data analysis. Statistically significant differences between the T4 uptake of transfected and wild type cells, in the presence or absence of inhibitor, were determined by two-way ANOVA (α = 5%, two-sided). […] In brief, uptake values were normalized to the median response of the vehicle and positive controls for each plate. […] Statistical analysis were performed using GraphPad Prism version 8 for Windows (GraphPad Software, San Diego, California USA) and SAS 9.3 (SAS Institute, Cary NC).

OAT4 = target: T2, OAT4 (Homo sapiens, UniProt Q9NSA0); assay: MDCK-OAT4 TH uptake assay with 125I-T4 tracer; type: cell-based; settings: 10 nM T4, 20 min; for 125I-T4 uptake compared to the vehicle control (range finding): single concentration 10 or 100 µM, below 80% = positive hit; for T4 uptake inhibition BMC20 (M), [CI]: concentration that inhibits 125I-T4 uptake by 20%, brackets = 95% CI
T2 construct: V5 (from pLenti6/V5-DEST); expressed in transfected cells; host or cells: MDCK-1 (lentiviral transduction, blasticidin selection)
T2 sequence (Q9NSA0 1-550): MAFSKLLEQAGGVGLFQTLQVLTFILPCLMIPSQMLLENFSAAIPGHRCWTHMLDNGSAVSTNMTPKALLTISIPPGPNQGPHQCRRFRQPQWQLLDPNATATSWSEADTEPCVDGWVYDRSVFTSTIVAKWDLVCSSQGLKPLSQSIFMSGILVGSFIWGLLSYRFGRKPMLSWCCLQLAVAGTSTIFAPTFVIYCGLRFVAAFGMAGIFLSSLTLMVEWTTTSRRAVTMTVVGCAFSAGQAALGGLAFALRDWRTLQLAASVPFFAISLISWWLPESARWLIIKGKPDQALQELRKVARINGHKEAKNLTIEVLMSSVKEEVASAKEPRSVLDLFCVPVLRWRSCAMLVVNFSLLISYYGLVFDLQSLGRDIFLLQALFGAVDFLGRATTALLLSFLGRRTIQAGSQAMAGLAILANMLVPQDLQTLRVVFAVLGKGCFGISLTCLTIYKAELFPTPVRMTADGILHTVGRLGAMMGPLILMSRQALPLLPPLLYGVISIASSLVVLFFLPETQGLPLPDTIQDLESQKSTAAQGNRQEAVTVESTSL
Experimental: Subsequently OAT4 in pENTR™/D-TOPO® Vector was shuffled into the pLenti6/V5-DEST vector (Thermo Fisher) using Gateway™ LR Clonase™ II Enzyme mix (Thermo Fisher) according to the manufacture’s protocol.
To generate an OAT4 stable cell line, MDCK-1 cells were plated in 12-well plates with full growth medium and transduced with fresh viral supernatants in the absence of antibiotics in medium. After 2 days, MDCK-1 cells transduced with OAT4 (MDCK-OAT4) or empty vector (MDCK-DEST) were selected in full growth medium supplemented with 2 µg/mL blasticidin and further maintained under blasticidin selection.
as §2, §3
as §4, with “chemical. Each individual experiment contained three technical replicates of each control and concentration tested.” for “chemical.”
as §5

oatp1c1 [2] = test system: oatp1c1; set-up: method as in Westholm et al. (2009); settings: T4 1 nM; ref Westholm et al. (2009); read-out: IC50 of T4 transmembrane transport inhibition; cited from earlier work
MDCK-OAT4 cells = assay: CellTiter-Glo luminescent cell viability assay in MDCK-OAT4 cells; settings: concentration that inhibits cell viability by 10%; MDCK-OAT4 cells, 20 min exposure
Experimental: as §1
Figure S2. […] Blue dots indicate the plate medians from three or four independent experiments, all control and chemical concentrations were tested in triplicates per plate. The black line indicates the best-fit concentrations response curve, the dotted line the corresponding 95% confidence interval.

[3] = concentration that inhibits 125I-T4 uptake by 20%, 10 nM T4, 30 min, brackets = 95% CI

T4 uptake inhibition BMC20 (M), [CI] (OATP1C1 [1]; [3]): 1.90E−05 [1.28E−05; 2.83E−05] M
Compound: CC(C)(c1ccc(O)cc1)c1ccc(O)cc1 [Bisphenol A, Bisphenol-A]
cytotoxic effects (CHO-K1 OATP1C1 cells): confounded by cytotoxic effects
Cytotoxicity IC10 (CHO-K1 OATP1C1 cells): 4.34 µM

Compound: O=S(=O)(c1ccc(O)cc1)c1ccc(O)cc1 [Bisphenol S, Bisphenol-S]
125I-T4 uptake compared to the vehicle control (range finding) (OAT4): ≥ 80%

Compound: Oc1ccc(C2(c3ccc(O)cc3)CCCCC2)cc1 [Bisphenol Z, Bisphenol-Z]
Cytotoxicity IC10 (CHO-K1 OATP1C1 cells): > 100 µM

T4 uptake inhibition BMC20 (M), [CI] (OAT4): 3.22E−06 [6.39E−07; 1.62E−05] M
Compound: O=C(O)Cc1ccccc1Nc1c(Cl)cccc1Cl [Diclofenac, reference compound]
pIC50 (oatp1c1 [2]): 5.40

T4 uptake inhibition BMC20 (M), [CI] (OATP1C1 [1]; [3]): 4.34E−07 [1.97E−07; 9.56E−07] M
Compound: O=C(O)CSc1nnc(Br)n1-c1ccc(C2CC2)c2ccccc12 [Lesinurad, reference compound]
Cytotoxicity IC10 (CHO-K1 OATP1C1 cells): > 100 µM
Cytotoxicity IC10 (MDCK-OAT4 cells): > 100 µM

Compound: [CH3][Hg][Cl] [MeHg, Methyl mercury]
125I-T4 uptake compared to the vehicle control (range finding) (OAT4): ≥ 80%
125I-T4 uptake compared to the vehicle control (range finding) (OATP1C1 [1]; single concentration 10 or 100 µM, 10 nM T4, 30 min, below 80% = positive hit): ≥ 80%

uptake of 125I-T4 with excess of unlabeled T4 (OATP1C1 [1]; 1 µM unlabeled T4): quenched the uptake
Compound: NC(Cc1cc(I)c(Oc2cc(I)c(O)c(I)c2)c(I)c1)C(=O)O (stereo not drawn) [T4, Thyroxine, reference compound]

Compound: Oc1cc(Cl)ccc1Oc1ccc(Cl)cc1Cl [Triclosan]
cytotoxic effects (CHO-K1 OATP1C1 cells): confounded by cytotoxic effects
Cytotoxicity IC10 (CHO-K1 OATP1C1 cells): 0.378 µM
T4 uptake inhibition BMC20 (M), [CI] (OATP1C1 [1]): 2.30E−06 [1.38E−06; 3.83E−06] M

Compound: β-Estradiol-3-sulfate [ß-Estrone-3-sulfate, reference compound]
T4 uptake inhibition BMC20 (M), [CI] (OAT4): 1.55E−06 [5.32E−07; 4.51E−06] M
125I-T4 uptake compared to the vehicle control (range finding) (OAT4): below 80%
